Experimental data: article PMC3969271, “A Bacterial Homolog of a Eukaryotic Inositol Phosphate Signaling Enzyme Mediates Cross-kingdom Dialog in the Mammalian Gut” (Cell Reports, 2014)

How the values were obtained:
BtMinpp [1] = biological target: T1, BtMinpp (Bacteroides thetaiotaomicron, UniProt Q89YI8); test: HPLC of […]-labelled products; phosphatase activity; format: biochemical; details: 1 mM InsP6; 0.25 μg/ml enzyme; labelled compound
T1 construct: gene BT_4744; N-terminal 6xHis fusion, expressed in Escherichia coli
T1 sequence (Q89YI8 21-425): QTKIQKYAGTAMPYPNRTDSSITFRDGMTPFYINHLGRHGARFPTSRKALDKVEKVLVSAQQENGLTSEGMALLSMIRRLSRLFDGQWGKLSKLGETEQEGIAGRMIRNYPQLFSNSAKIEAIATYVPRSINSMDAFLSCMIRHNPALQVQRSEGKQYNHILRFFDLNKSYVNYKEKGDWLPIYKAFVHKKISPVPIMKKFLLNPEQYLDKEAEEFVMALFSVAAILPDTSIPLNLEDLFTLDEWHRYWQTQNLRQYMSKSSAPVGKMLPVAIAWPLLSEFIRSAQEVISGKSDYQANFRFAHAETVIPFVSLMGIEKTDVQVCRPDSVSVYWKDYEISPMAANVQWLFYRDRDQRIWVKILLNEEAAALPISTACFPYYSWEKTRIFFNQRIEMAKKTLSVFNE

BtMinpp [2] = biological target: T1, BtMinpp; test: X-ray crystal structure, […] Å; format: binding; details: active site; nonhydrolysable InsP6 analog

SMILES | HPLC of 32P-labelled products; phosphatase activity (BtMinpp [1]) | X-ray crystal structure, 2.42 Å (BtMinpp [2])
O=P(O)(O)O[C@H]1[C@H](OP(=O)(O)O)[C@@H](OP(=O)(O)O)[C@H](OP(=O)(O)O)[C@@H](OP(=O)(O)O)[C@H]1OP(=O)(O)O [InsP6] | confirmed that this protein has InsP6 phosphatase activity (Figure 1A) | 
O=S(=O)(O)O[C@H]1[C@H](OS(=O)(=O)O)[C@@H](OS(=O)(=O)O)[C@H](OS(=O)(=O)O)[C@@H](OS(=O)(=O)O)[C@H]1OS(=O)(=O)O [InsS6, myo-inositol hexakissulfate] |  | myo-inositol hexakissulfate (InsS6), again bound in the active sites of both molecules
